Measured values taken from US20240300945A1, “CLY SERIES COMPOUND, PREPARATION METHOD THEREFOR AND USE THEREOF IN PREPARATION OF DRUGS” (NANJING WELLBEST PHARMACEUTICAL CO., LTD, priority 2021, published 2024).

Tests used:
skin melanocytes = assay: Chloasma model of guinea pig: pathomorphological observation of skin melanocytes; type: in vivo; parameters: Average gray level (melanocyte depth): scale not given here; settings: 0.25% cream once a day, 30 days
Description: According to the body weight, they were randomly divided into the model control group (applied cream matrix), blank control group (applied cream matrix), CLY-1 treatment group (applied 0.25% CLY-1 cream on the skin), CLY-2 treatment group (0.25% CLY-2 cream on the skin), CLY-3 treatment group (0.25% CLY-3 cream on the skin), CLY-4 treatment group (0.25% CLY-4 cream on the skin), CLY-5 treatment group (0.25% CLY-5 cream on the skin) CLY-8 treatment group (0.25% CLY-8 cream on the skin), CLY-11 treatment group (0.25% CLY-11 cream on the skin), CLY-19 treatment group (0.25% CLY-19 cream on the skin), CLY-36 treatment group (0.25% CLY-36 cream on the skin), CLY-39 treatment group (0.25% CLY-39 cream on the skin), positive treatment group (0.25% arbutin cream on the skin), 6 in each group. In addition to the blank control group, all guinea pigs in the other groups were injected with 20 mg/ml progesterone injection (7.5 mg/kg) into the muscle at the root of the hind leg, once a day, for 30 consecutive days to establish the chloasma model. […] After modeling, the guinea pigs in the model control group, blank control group, each CLY series treatment group, and positive treatment group were treated with corresponding cream on the back for intervention, once a day, for 30 consecutive days.
Took 1 piece of spare skin tissue from each of all guinea pigs, about 2 cm×1 cm, 10% paraformaldehyde fixation, pathological tissue detection, immunohistochemical staining, observation of melanocyte staining and number, and judgment of positive cells according to the literature: none, 0 point<15%, 0.5 points<30%, 1 point; >30%, 2 points. Observed 5 visual fields in each slice, found out the positive target with brown reaction in the cytoplasm of skin epidermis and accessory epithelial cells, and used BX50F4 Beihang pathological image analysis system for quantitative analysis to obtain the average area, the ratio of target area to statistical field area (areal density), the ratio of target number to statistical field area (number density), the average gray level, the average optical density and the integrated optical density of each guinea pig's 5 visual fields of melanin positive target.
SPSS16.0 software was used for statistics. The measurement data were expressed by mean±standard deviation (x±s). The comparison between multiple groups was performed by one-way ANOVA, and the comparison between groups was performed by t-test. P<0.05 was statistically significant.

[1] = test system: skin hair follicles and sebaceous glands of mice; assay: Mouse hair loss model: histopathological grading of skin hair follicles and sebaceous glands; type: in vivo, C57BL/6 mice; settings: external 2% tincture, 60 days, 6 mice per group; for number of mice with hair follicle and sebaceous gland grade +++: grade +++ (most severe); for number of mice with hair follicle and sebaceous gland grade ±: grade ± (lesions limited); for number of mice with hair follicle and sebaceous gland grade −: grade − (normal structure)
Description: The experimental mice were divided into the negative control group (external use of 60% ethanol), model group (external use of 60% ethanol), positive control group (external use of 2% minoxidil tincture), CLY-1 external treatment group (external use of 2% CLY-1 tincture), CLY-2 external treatment group (external use of 2% CLY-2 tincture), CLY-3 external treatment group (external use of 2% CLY-3 tincture), CLY-4 external treatment group (external use of 2% CLY-4 tincture), CLY-8 external treatment group (external use of 2% CLY-8 tincture) CLY-11 external treatment group (2% CLY-11 tincture), CLY-19 external treatment group (2% CLY-19 tincture), CLY-36 external treatment group (2% CLY-36 tincture), and CLY-39 external treatment group (2% CLY-39 tincture). There were 6 animals in each group, half male and half female. An area of 4 cm×5 cm from the back of experimental mice with hair removed was selected, and the hair removal area was painted yellow with 3% picric acid solution to determine the observation area of the hair removal experiment. In addition to the negative control group, mice in other groups were injected subcutaneously with testosterone propionate injection [8 ml/(kg·d)] at the back of the neck, once a day, for 60 consecutive days, to establish the model of androgenic alopecia (AGA). At the same time of modeling, the rats in the corresponding drug group were smeared with drugs on the observation area of the back at the rate of 1 ml/(piece·time), twice a day, with an interval of 2 hours. The normal control group and the model control group were smeared with the excipient (60% ethanol solution), 1 ml/(one time), twice a day, for 60 consecutive days.
10 hairs were extracted from the observation area on the back of each mouse every 15 days after administration, and the hair length was measured with a vernier caliper. After 60 days of administration, the skin of the experimental observation area was taken for routine tissue dehydration, paraffin embedding, HE staining, and light microscopy to observe the histopathological changes of mouse skin hair follicles and sebaceous glands. Semi-quantitative analysis was performed for each group. The grading criteria are as follows: the normal structure of dermal tissue cells, subcutaneous hair follicles, and sebaceous glands is marked as […]: no hyperplasia of dermal tissue is found, the lesions of hair follicles and sebaceous glands are limited, and no inflammation is found under the skin is marked as “+”: no obvious hyperplasia of dermal tissue is found, and the follicles are obviously cystic. No obvious hyperplasia of sebaceous glands is found, and no inflammation is found under the skin is marked as “+”: the dermal tissue has segmental hyperplasia, which is not obvious, A small number of hair follicles have cystic changes, and the sebaceous glands have mild hyperplasia and hypertrophy. There is no obvious inflammation under the skin, which is marked as “++”: the dermal tissue cells of the skin have different degrees of segmental hyperplasia, and some hair follicles have cystic changes, showing uneven size of hair follicles, and no cells around. The sebaceous glands have hyperplasia, and the nuclei in the proliferative glands are few. A few subcutaneous mild inflammatory hyperplasia is marked as “+++”.

Row | Structure (SMILES) | Area density of melanocytes (skin melanocytes) | Area of melanocytes (skin melanocytes) [um2] | Average gray level (melanocyte depth) (skin melanocytes) | Average optical density (melanocyte depth) (skin melanocytes) | Integrated optical density (melanocyte depth) (skin melanocytes) | Number density of melanocytes (skin melanocytes) | Number of melanocytes (skin melanocytes) | number of mice with hair follicle and sebaceous gland grade +++ [1] | number of mice with hair follicle and sebaceous gland grade ++ [1] | number of mice with hair follicle and sebaceous gland grade + [1] | number of mice with hair follicle and sebaceous gland grade ± [1] | number of mice with hair follicle and sebaceous gland grade − [1]
1 | O=C(c1ccc(-c2ccccc2Cl)cc1)N(c1ncccc1Cl)[C@@H]1CCCNC1 [CLY-36] | 0.007 ± 0.004 | 495.32 ± 79.43 | 0.47 ± 0.07 | 11.53 ± 1.22 | 97.62 ± 9.91 | 2.67 ± 1.38 | 1.98 ± 0.59 | 0 | 2 | 1 | 3 | 0
2 | Nc1ccccc1-c1ccc(C(=O)N(c2ncccc2Cl)[C@@H]2CCCNC2)cc1 [CLY-39] | 0.006 ± 0.003 | 458.06 ± 76.32 | 0.47 ± 0.07 | 11.06 ± 1.17 | 101.36 ± 9.72 | 2.03 ± 1.24 | 1.39 ± 0.32 | 0 | 1 | 2 | 3 | 0
